Measured values reported in US7507749B2, “Antitumor agents” (priority 2001, dated 2009).

System: mammary adenocarcinoma-17/Adr
Assay: Test E: R-enantiomer of compound 22b and compound 22a against early stage mammary adenocarcinoma-17/Adr
Format: in vivo
Protocol: Then, P.B.S. was added and the pH adjusted to 7 with HCl. A volume of 0.2 ml per injection was administered to animals intravenously. […] Then, P.B.S. was added and the pH was adjusted to 7 with HCl. A volume of 0.2 ml per injection was administered to animals intravenously.

[1] = Cage 6, IV 83 mg/kg/inj qd 1-4, total 332 mg/kg
[2] = Cage 7, IV 55 mg/kg/inj qd 1-4, total 220 mg/kg
[3] = Cage 7, IV 55 mg/kg/inj qd 1-4, total 220 mg/kg, listed as R-enantiomer of compound 22b
[4] = Cage 8 (one mouse), IV single bolus 124.5 mg/kg day 1

C[C@@H](Oc1ccc(Oc2ccc3ccc(Cl)cc3n2)cc1)C(=O)O [Compound R-22b, (R) 2-[4-(7-chloroquinolin-2-yloxy)phenoxy]propanoic acid]
Neuromuscular toxicity (Cage 6, IV 83 mg/kg/inj qd 1-4): neuromuscular toxicity was not produced
% Body Wt Loss at Nadir [1]: −17.5%
% T/C mass [1]: toxic
Activity Rating [1]: toxic
Cause of death [1]: GI-epithelial damage
Day of Nadir [1]: 6 days
Drug Deaths [1]: 5/5
Median Tumor Mass on day 9 (Range) [1]: toxic
Tumor Free day-23 [1]: 0/5
Drug Deaths (Cage 6, IV 83 mg/kg/inj qd 1-4, total 332 mg/kg, listed as R-enantiomer of compound 22b): killing all of the 5 mice
% Body Wt Loss at Nadir [2]: −23.4%
% T/C mass [2]: 0%
Activity Rating [2]: ++++ (>2.8)
Cause of death [2]: GI-epithelial damage (diarrhea) complicated with marrow toxicity
Day of Nadir [2]: 9 days
Day of full recovery of body weight [2]: 14 days
Day tumors reached 1000 mg (range) [2]: 22 (18-23) day
Drug Deaths [2]: 1/5
Growth Delay [2]: 13 days
Log Kill [2]: 3.3
Median Tumor Mass on day 9 (Range) [2]: 0 (all zeros) mg
Tumor Free day-23 [2]: 0/5
% Body Wt Loss at Nadir [3]: −23.4%
% T/C mass [3]: 0%
% Body Wt Loss at Nadir [4]: 0%
Activity Rating [4]: + (0.7-1.2)
Day of Nadir [4]: 9 days
Drug Deaths [4]: 0/1
Growth Delay [4]: 3 days
Log Kill [4]: 0.8
Median Tumor Mass on day 9 (Range) [4]: 340 (one mouse) mg
Neuromuscular toxicity [4]: no neuromuscular toxicity
Tumor Free day-23 [4]: 0/1
% T/C mass (Cage 8 (one mouse), IV single bolus 124.5 mg/kg day 1, 124.5 mg/kg): 35%
% T/C mass (Cage 8 (one mouse), IV single bolus 124.5 mg/kg day 1, listed as R-enantiomer of compound 22b, 124.5 mg/kg): 35%
